The results in this text go back to ChEMBL document CHEMBL3507680, “University of Dundee, Gates Library screen for HepG2 cell viability”.

This data set is described as follows: Human HepG2 cell viability assay in 384 well format. On the set-up: dose 125 nL, time 70.5 hour; cytotoxicity at 70.5 h: concentration not given beside the values. The data set is classed as toxicity, cell-based. Conditions: HepG2 cells, read-out: Inhibition.
For the molecule `CC(C)(C)n1ccc(C(=O)N2CCCC(c3ncc[nH]3)C2)c1` (stereo not drawn), the cytotoxicity at 70.5 h was -1.92%.

`Cc1nc(CN2C[C@@H]3CN(C(=O)NC(C)C)C[C@@H]3C2=O)cs1`: the cytotoxicity at 70.5 h was -5.1%.

As to `Cn1cc(CN2CCC3(CC(=O)N(c4ccc5c(c4)OCO5)C3)C2)cn1` (stereo not drawn), the cytotoxicity at 70.5 h is -9.01%.

Regarding `Nc1ncc(C(=O)N2CCC(O)(CO)CC2)c(-c2ccccc2)n1`, the cytotoxicity at 70.5 h was -15.6%.

Take `COCCn1ccnc1-c1cc(CN2CCCCC2)cs1`: the cytotoxicity at 70.5 h worked out at 33.9%.

Turning to `CC(C)c1cc(C2CCCN2C(=O)CN2C(=O)CCNC2=O)no1` (stereo not drawn), the cytotoxicity at 70.5 h is -5.21%.

As to `Cc1nc(CN2CCCC2C(=O)OCc2ccccc2)oc1C` (stereo not drawn), the cytotoxicity at 70.5 h is -10.3%.

Take `COc1ccc(N2Cc3nc(N)ncc3C2=O)cc1`: the cytotoxicity at 70.5 h turned out to be 9.83%.

As to `CC(C)CCN(C(=O)c1cc2c([nH]c1=O)CCCC2=O)C1CC1`, the cytotoxicity at 70.5 h was -2.36%.

Regarding `CN(C)c1ccc(CC2CCCN(c3cnccn3)C2)nn1` (stereo not drawn), the cytotoxicity at 70.5 h is -6.12%.

`CCc1nc(C)sc1CN(Cc1ccncc1)C1CCN(C)CC1`: the cytotoxicity at 70.5 h is -6.03%.

Consider `O=C([C@@H]1COC[C@H]2CN(C3CCOCC3)C[C@H]21)N1CCCCO1`, for which the cytotoxicity at 70.5 h amounted to 18.7%.

`Cc1cc(C(=O)N2C[C@H]3CC[C@@H]2CN(C(=O)c2ccncc2)C3)cs1`: the cytotoxicity at 70.5 h is -1.99%.

Consider `NC(=O)Cn1cc(NC(=O)NCCN2CCc3ccccc3C2)cn1`, for which the cytotoxicity at 70.5 h was -5.44%.

Turning to `CCNc1cc2c(nn1)CCN(C(=O)c1cccc(CSC)c1)C2`, the cytotoxicity at 70.5 h was -3.17%.

As for `Cn1cc(C2CC(=O)NC23CCN(c2ncc(F)cn2)CC3)cn1` (stereo not drawn), the cytotoxicity at 70.5 h is 25.2%.

As for `CCCN(Cc1ccc(C#N)cc1)Cc1nnsc1Cl`, the cytotoxicity at 70.5 h turned out to be 26.4%.

For `Cc1n[nH]c(C)c1NC(=O)CN1CCCC1Cn1cncn1` (stereo not drawn), the cytotoxicity at 70.5 h was -0.918%.

With `CCN1CCN(c2ccc(CNC(=O)c3ccc(Cl)o3)cn2)CC1`, the cytotoxicity at 70.5 h was 3.11%.

Regarding `COc1ccc(CNC(=O)CCCc2nnc3ccc(OC)nn23)cc1`, the cytotoxicity at 70.5 h was -14.6%.

For `COC(=O)C1CCCN1C(=O)c1cc(CC(C)C)no1` (stereo not drawn), the cytotoxicity at 70.5 h was -1.76%.

In the case of `CC(C)Nc1ncnc2c1CCN(C(=O)c1ccccc1F)CC2`, the cytotoxicity at 70.5 h is -3.35%.

`Cc1cc(-c2nn3c(C4CCC4)nnc3s2)on1`: the cytotoxicity at 70.5 h was -7.88%.

As to `CCn1ccnc1CN1CCN(CCc2ccccn2)CC1C` (stereo not drawn), the cytotoxicity at 70.5 h is -3.46%.

Take `Cc1cc(CNCC2(O)CCOCC2)ccc1Br`: the cytotoxicity at 70.5 h came out at 4.13%.

Consider `O=C(NCc1ccccc1)N1CCC2(CC(=O)N(c3ccccc3)C2)C1` (stereo not drawn), for which the cytotoxicity at 70.5 h is -5.57%.

Consider `O=C(c1ccc(F)cc1)N1CC[C@H]2[C@H]1CCN2CC1CC1`, for which the cytotoxicity at 70.5 h is -17.1%.

With `CC(=O)Nc1ccn(Cc2ccccc2)n1`, the cytotoxicity at 70.5 h was -12.2%.

Regarding `CCS(=O)(=O)N1CCOC2(CCCN(c3cccc(C#N)c3)C2)C1` (stereo not drawn), the cytotoxicity at 70.5 h was -5.28%.

`NC(=O)c1ccc2c(c1)nc1n2CCN(Cc2ccccc2)C1`: the cytotoxicity at 70.5 h is -15.9%.

As for `O=C(NC1CC1)C1CCc2nnc(-c3cccc(C(F)(F)F)c3)n21` (stereo not drawn), the cytotoxicity at 70.5 h is -11.5%.

As for `COc1ccc(-c2cn[nH]c2)cc1CNC1CCCC1`, the cytotoxicity at 70.5 h was -19.5%.

`COc1ccnc(N2CCN(C(=O)c3ccc(Cl)o3)CC2)n1`: the cytotoxicity at 70.5 h is -4.43%.

For `O=C(c1cccc(F)c1)N1CCc2ncc(Cn3cccn3)n2CC1`, the cytotoxicity at 70.5 h is -11%.

On to `CCn1cnnc1CNC(=O)N(C)Cc1ccc(F)c(F)c1`, for which the cytotoxicity at 70.5 h was -5.87%.

As for `CC(c1cccnc1)N1CCN(CCCC#N)CC1` (stereo not drawn), the cytotoxicity at 70.5 h stood at 15%.

With `CN(Cc1cccc(F)c1)S(=O)(=O)N1CCOCC1`, the cytotoxicity at 70.5 h is -3.2%.

Consider `Cc1ccc(F)c2c1N(C(=O)c1cn(CC(=O)N(C)C)nn1)CCC2`, for which the cytotoxicity at 70.5 h was -10.6%.

As to `O=C(c1ccc(-c2cccs2)cc1F)N1CCN(CCO)CC1`, the cytotoxicity at 70.5 h was -2.06%.

Consider `N#Cc1ccc(CN2C[C@@H]3OCC(=O)N(CC(N)=O)[C@@H]3C2)cc1`, for which the cytotoxicity at 70.5 h is -3.35%.

Consider `Cc1nc(NS(=O)(=O)c2cc(C)c(Br)cc2C)no1`, for which the cytotoxicity at 70.5 h is -14.1%.

In the case of `CCCn1ncc(CN(Cc2ccsc2)Cc2ccco2)c1C`, the cytotoxicity at 70.5 h is -6%.

Turning to `Cc1occc1C(=O)N1CCC2(CC1)NC(=O)CC2c1cnn(C)c1` (stereo not drawn), the cytotoxicity at 70.5 h is -10.3%.

Take `O=C(c1cccc(-n2cccn2)c1)N1CCCOC(Cn2cccn2)C1` (stereo not drawn): the cytotoxicity at 70.5 h was 12.9%.

Regarding `NC1(C(=O)NCCC2CN(Cc3ccco3)CCO2)CCCC1` (stereo not drawn), the cytotoxicity at 70.5 h was determined as 29.8%.

Regarding `CC(C)N(C(=O)CCc1ccco1)C1CCOCC1`, the cytotoxicity at 70.5 h is -9.28%.

In the case of `Cc1ccc(S(=O)(=O)NC[C@H]2OC[C@@H](NCc3ccccn3)[C@@H]2O)cc1`, the cytotoxicity at 70.5 h was -6.39%.

Regarding `CN(CCO)CC1COCCN1C(=O)C1(c2cccs2)CCCC1` (stereo not drawn), the cytotoxicity at 70.5 h is -1%.

In the case of `Cc1cc(CN2CCC(CNC(=O)Cc3ccc(F)cc3)C2)[nH]n1` (stereo not drawn), the cytotoxicity at 70.5 h is -7.47%.

`O=C(N[C@@H]1CCN(c2nc3ccccc3o2)C[C@H]1O)c1cnccn1`: the cytotoxicity at 70.5 h was -9.1%.

As for `O=C(O)c1nnn(Cc2ccc(F)cc2)c1-c1cccnc1`, the cytotoxicity at 70.5 h is -10.1%.

For the molecule `CC(C)C(=O)NCCc1cc2nc(-c3ccncc3)ccn2n1`, the cytotoxicity at 70.5 h was -6.71%.

For the molecule `CCc1nc(CN2CCCC(N(C)Cc3cnn(C)c3)C2)no1` (stereo not drawn), the cytotoxicity at 70.5 h was -10.2%.

In the case of `CCS(=O)(=O)N1CCC2(CC1)CC[C@@]1(C(=O)N(C)C)CN(C(C)=O)C[C@@H]21`, the cytotoxicity at 70.5 h amounted to 13.5%.

With `CCc1nn(C)c(Cl)c1CN1CCC2(C1)CN(C)C(=O)O2` (stereo not drawn), the cytotoxicity at 70.5 h is -17.2%.

In the case of `Cc1nccc(-c2ccccc2)c1C(=O)N1CCC2(CN(C)C(=O)O2)C1` (stereo not drawn), the cytotoxicity at 70.5 h was -5.07%.

`CCN1C[C@H]2CCN(C(=O)c3cc[nH]n3)CC[C@H]2S1(=O)=O`: the cytotoxicity at 70.5 h was -14.6%.

`CCN(CC)CCNC(=O)CCc1c(C)nn(-c2cccc(Cl)c2)c1C`: the cytotoxicity at 70.5 h came out at 0.617%.

`O=C(Cn1ccnc1)N1C[C@@H]2CC[C@H](Oc3cccc(F)c3)[C@@H]2C1`: the cytotoxicity at 70.5 h is -6.97%.

`CC(C)=CCC1(C(=O)O)CCCN(CCC(=O)NC2CC2)C1` (stereo not drawn): the cytotoxicity at 70.5 h is -25.9%.

With `Cc1nc(N(C)C)nc(C)c1NS(=O)(=O)c1ccccc1Cl`, the cytotoxicity at 70.5 h was -8.77%.

For the molecule `CCCN(C)S(=O)(=O)N1CCCC1c1ccco1` (stereo not drawn), the cytotoxicity at 70.5 h stood at 1.45%.

As for `O=C(NC1CC1)c1cc(NC(=O)N2CCSCC2)ccc1Cl`, the cytotoxicity at 70.5 h turned out to be 15.9%.

As for `CN(C)Cc1cnc2n1CCN(C(=O)Cc1ccsc1)CC2`, the cytotoxicity at 70.5 h turned out to be 8.26%.

On to `N#Cc1ccc(CN2CCCC2Cn2cccn2)c(F)c1` (stereo not drawn), for which the cytotoxicity at 70.5 h was determined as 4.66%.

Turning to `O=C(c1sccc1C1CC1)N1CCCN(c2cccnn2)CC1`, the cytotoxicity at 70.5 h was -7.16%.

Consider `CN(Cc1ccccc1)C(=O)Cn1nc(N2CCSCC2)ccc1=O`, for which the cytotoxicity at 70.5 h is -6.57%.

As to `CNC(=O)CN1CCOCC2(C1)CN(C(=O)C(C)C)CCO2` (stereo not drawn), the cytotoxicity at 70.5 h is -9.58%.

Take `Cc1ccccc1C(C#N)NC(=O)CCCOc1cccnc1` (stereo not drawn): the cytotoxicity at 70.5 h is -0.163%.

Take `CCCNC(=O)c1cc2c(s1)CCN2c1ncccn1`: the cytotoxicity at 70.5 h was found to be 3.12%.

Take `COc1cc(N2CCc3ncnc(-c4ccoc4)c3CC2)ncn1`: the cytotoxicity at 70.5 h is -7.42%.

On to `CN1CCC2(CCN(Cc3nccs3)CC2)C1=O`, for which the cytotoxicity at 70.5 h is -1.5%.

As for `COc1ccc2c(c1)C(=O)N(C)C1(CCN(C(=O)OC(C)(C)C)CC1)N2`, the cytotoxicity at 70.5 h stood at 1.71%.

Turning to `CC(C(=O)NS(=O)(=O)Cc1cc(-c2ccccc2)no1)C1CC1` (stereo not drawn), the cytotoxicity at 70.5 h was -1.89%.

In the case of `CC(C)C(=O)NCCC(=O)N1CCN(c2ccccn2)CC1`, the cytotoxicity at 70.5 h was -4.63%.

With `Cc1ccc(C(=O)NCC2CCN(C)c3ccccc32)c(=O)[nH]1` (stereo not drawn), the cytotoxicity at 70.5 h is -2.94%.

As to `O=C(c1[nH]nc(C2CC2)c1Cl)N1CCCC1`, the cytotoxicity at 70.5 h came out at 3.72%.

Take `Cc1ccc(Cl)c(CN2CCN(C)C(C(=O)O)C2)c1F` (stereo not drawn): the cytotoxicity at 70.5 h is -5.85%.

Turning to `Cc1nc2ccc(C(=O)N3CCC(COc4ccccn4)CC3)cc2[nH]1`, the cytotoxicity at 70.5 h worked out at 44.6%.

Regarding `O=C(Nc1cccc(CN2CCOC2=O)c1)N1CCCCCC1`, the cytotoxicity at 70.5 h is 35.8%.

Consider `COc1ccc(CN(C)Cn2cc(C)n(-c3cc(C)on3)c2=O)cc1`, for which the cytotoxicity at 70.5 h was -12.5%.

With `CNC(=O)N1CC[C@@H]2CN(CCc3cccc(OC)c3)S(=O)(=O)[C@@H]2CC1`, the cytotoxicity at 70.5 h was -0.824%.

`CCc1cc(N[C@H](C(N)=O)[C@@H](C)CC)n2nccc2n1`: the cytotoxicity at 70.5 h is -1.65%.

With `CCOCCOC(C)C(=O)Nc1ccc2ccn(CCN(C)C)c2c1` (stereo not drawn), the cytotoxicity at 70.5 h is -1.63%.

On to `Cn1nnc2c1CCN(Cc1nccs1)C2COCc1ccccc1` (stereo not drawn), for which the cytotoxicity at 70.5 h was -2.36%.

Consider `O=C1CCCCN1CCC(=O)N1CCCCC1c1ccc(F)cc1` (stereo not drawn), for which the cytotoxicity at 70.5 h was -6.63%.

Take `Cc1ccc(C2(O)CCN(Cc3nnc(-c4cccnc4)o3)CC2)nc1`: the cytotoxicity at 70.5 h was -2.19%.

Consider `CC(=O)N[C@H]1CCN2C(=O)[C@@H](Cc3c[nH]c4ccccc34)NC(=O)[C@H]12`, for which the cytotoxicity at 70.5 h is -13.3%.

With `Oc1cc(C2CCCCN2CC2CC2)nc(-c2ccncc2)n1` (stereo not drawn), the cytotoxicity at 70.5 h is -10.4%.

In the case of `CC(Cn1cccn1)NCc1cnc(N2CCCC2)nc1` (stereo not drawn), the cytotoxicity at 70.5 h is -3.66%.

`Cc1cc(C)n(C2CCCN(C(=O)CN(C)C3CC3)C2)n1` (stereo not drawn): the cytotoxicity at 70.5 h is -3.88%.

Take `NC(=O)C1CCN(C(=O)Cn2ccc3cc(Br)ccc32)CC1`: the cytotoxicity at 70.5 h was -9.96%.

Take `CCCNC(=O)c1ccc(NC(=O)NC(C)c2ccccn2)cc1` (stereo not drawn): the cytotoxicity at 70.5 h is -8.01%.

As for `CC[C@H](C)[C@H](N)C(=O)N1CC(=O)c2sc(Nc3ccc(F)cc3)nc2C1`, the cytotoxicity at 70.5 h was 7.24%.

For the molecule `O=S1(=O)c2cccnc2OC(Cc2ccccc2)CN1CC1CC1` (stereo not drawn), the cytotoxicity at 70.5 h came out at 1.6%.

Regarding `OCCN1CCC(c2csc(Nc3cnccn3)n2)CC1`, the cytotoxicity at 70.5 h was determined as 14.5%.

In the case of `CN(C(=O)c1ccc(S(=O)(=O)NC(C)(C)C)cc1)C1(C#N)CCC1`, the cytotoxicity at 70.5 h is -17.4%.

For `CCc1noc(CN(C)C(=O)c2ccccc2-c2ncn[nH]2)n1`, the cytotoxicity at 70.5 h is -2.67%.
